The melting point is the temperature, or range, at which the solid turns liquid.

We go through 4 compounds from patent US7777038B2, “Carbostyril compound” (Otsuka Pharmaceutical Co., Ltd., priority 2004, dated 2010).

Data set [1] deals with acetic acid-induced gastric ulcers. The experiment in a line: Healing effects on rat models with acetic acid-induced gastric ulcers. The conditions noted are these: oral, once a day for 8 days, dose 10 mg/kg, ulcerated area vs vehicle (0.5% CMC). The class given is in vivo. As to the method:
Healing Effects on Rat Models with Acetic Acid-Induced Gastric Ulcers
(1) Production of Gastric Ulcer by Acetic Acid
Rats were fasted from the previous day. A celiotomy was done in each rat under ether anesthesia, and the stomach was exteriorized. Subsequently, 20 μL of a 30% acetic acid solution was injected into the submucosa at the junction of the body of the glandular stomach and the pyloric antrum using a disposable syringe to produce a gastric ulcer.
(2) Test Compound Administration
Each test compound was suspended in a 0.5% carboxymethylcelullose (CMC) solution at concentrations of 0.75 or 2.5 mg/ml. The rats were orally administrated once a day for 8 days starting with the forth day from operation at doses of 3 or 10 mg/kg. A gastric tube and a syringe were used for the oral administration. […]
On the next day the vehicle and the test compound were finally administrated to the rats, the rats were sacrificed by exsanguination under anesthesia with ether, and each stomach was removed. The removed stomachs were fixed in 1% formalin for 15 minutes, dissected along the greater curvature of stomach to expose the ulcer, and the ulcerated area was measured. […]
The ulcerated area was measured under a stereo microscope (10×) with an ocular micrometer (1 mm^2/grid), and the percentage healing ratio was calculated. The percentage healing ratio was calculated by the following formula.

In data set [2] the test system is human Trefoil Factor 2 (hTFF2) gene. Put plainly: hTFF2 gene reporter assay (luciferase) using pGL3-hTFF2pro•pWL-neo/MKN-45 #6-2 cell line. The following applies: test compound concentration 10^−6 M; 24 hours culture; luciferase activity as control % of dimethylsulfoxide-added wells (100%). The data set is classed as cell-based. As to the method: Transcription promoting activity on human Trefoil Factor 2 (hTFF2) gene of test compounds was evaluated by means of an hTFF2 gene reporter assay.
(1) Preparation of hTFF2 Gene Reporter Vector pGL3-hTFF2pro
DNA was extracted from HeLa cells (CCL-2, DAINIPPON PHARMACEUTICAL CO., LTD.) using a deoxyribonucleic acid (DNA) extraction kit (DNeasy™ Tissue Kit, manufactured by QIAGEN). The hTFF2 promoter region was amplified using the extracted DNA as a template by means of the polymerase chain reaction (PCR). The oligomers 5′-[…]-3′ and 5′-[…]-3′ were selected as PCR primers to be amplified, based on the report by Beck et al. (Beck S., Sommer P., Blin N., Gott P., 5′-flanking motifs control cell-specific expression of trefoil factor genes (TFF), Int. J. Mol. Med. 2(3), 353-361 (1998)). Platinum® Pfx DNA polymerase was used as DNA polymerase. The PCR was performed under the conditions of denaturing for 30 seconds at 95° C., annealing for 30 seconds at 55° C. and extending for 75 seconds at 68° C., and the procedures were repeated for 32 cycles.
The PCR products were separated and purified by 1% agarose gel electrophoresis, and cloned to a pCR-BluntII-TOPO vector attached to a cloning kit (Zero Blunt® TOPO® PCR Cloning Kit, manufactured by Invitrogen Corporation). The produced plasmid pCR-Blunt-TFF2pro was introduced into E. coli for transformation (TOP 10 Ultracomp™ Cells, manufactured by Invitrogen Corporation), and transformant strain pCR-Blunt-TFF2pro/TOP10 was selectively cultured in LB agar medium containing 30 μg/ml of Zeocin (Zeocin, manufactured by Invitrogen Corporation). The pCR-Blunt-TFF2pro/TOP10 was subjected to shaking culture in 50 ml of LB medium containing 30 μg/ml of Zeocin at 37° C. over night, and a plasmid was prepared using a plasmid preparation kit (Concert™ High Purity Midiprep System, manufactured by GIBCO BRL).
The nucleotide sequence of the PCR product cloned to the plasmid pCR-Blunt-TFF2pro was determined. The determined nucleotide sequence was compared with the counterpart of hTFF2 promoter region reported in a gene bank (GenBank accession AB038162). The nucleotide sequence of the MluI-HindIII region cloned in pCR-Blunt-TFF2pro was identical to GenBank accession AB038162 (FIG. 1).
The underlined portions indicate the recognition sequence (ACGCGT) of the restriction enzyme MluI and the recognition sequence (AAGCTT) of the restriction enzyme HindIII. The nucleotide sequences of the MluI-HindIII region are identical between the hTFF2 promoter region reported in GenBank and the PCR product cloned to the plasmid pCR-Blunt-TFF2pro. […]
(In general: A reporter such as luciferase makes a cellular process visible.)

Bounds are passed on as bounds.

As to `COc1ccc(CC2SC(=O)NC2=O)c2ccc(=O)n(C)c12` (stereo not shown) [Example 1, 5-(8-methoxy-1-methyl-2-oxo-1,2-dihydroquinolin-5-ylmethyl)thiazolidine-2,4-dione], the melting point fell in the range of 254 to 255 °C. Besides, the “Healing Ratio (%)” value in data set [1] was greater than 20%. `COC(=O)c1ccc(CN2C(=O)CCc3c(CC4SC(=O)NC4=O)ccc(OC)c32)cc1` (stereo not shown) [Example 25, 5-[8-methoxy-1-(4-methoxycarbonylbenzyl)-2-oxo-1,2,3,4-tetrahydroquinolin-5-ylmethyl]thiazolidine-2,4-dione]: the melting point is 193.1 to 195.5 °C. Moreover, the “TFF2 Production Promoting Activity” value in data set [2] is reported as “++ (a TFF2 production promoting activity of 1000% or higher at a test compound concentration of 10^−6 M)”. With `CCCCOc1ccc(CC2SC(=O)NC2=O)c2c1N(Cc1ccccc1)C(=O)CC2` (stereo not shown) [Example 32, 5-(1-benzyl-8-butoxy-2-oxo-1,2,3,4-tetrahydroquinolin-5-ylmethyl)thiazolidine-2,4-dione], the “TFF2 Production Promoting Activity” value in data set [2] is “+ (a TFF2 production promoting activity of 300% or higher at a test compound concentration of 10^−6 M)”. In turn, `COc1ccc(CC2SC(=S)NC2=O)c2c1N(CCC(C)C)C(=O)CC2` (stereo not shown) [Example 1315, 8-methoxy-1-(3-methylbutyl)-5-(4-oxo-2-thioxothiazolidin-5-ylmethyl)-3,4-dihydro-1H-quinolin-2-one] displayed a melting point of 139.5 to 141 °C. Moreover, the “TFF2 Production Promoting Activity” value in data set [2] was “++ (a TFF2 production promoting activity of 1000% or higher at a test compound concentration of 10^−6 M)”.
